Measured values published in ChEMBL document CHEMBL3758182, “Synthesis of Alocasin A” (J Nat Prod, 2015).

Experiments:
[1] = system: HepG2; experiment: Antiproliferative activity against human HepG2 cells; type: functional, cell-based
[2] = Antiproliferative activity against human Hep2 cells; type: functional, cell-based; conditions: HEp-2

Molecule `Oc1ccc2[nH]cc(-c3cnc(-c4c[nH]c5ccc(O)cc45)cn3)c2c1` has an IC50 [1] of 85 µM and an IC50 [2] of 151 µM.
